Laboratory results: US20140315809A1, “CALCIMIMETICS AND METHODS FOR THEIR USE” (KAI PHARMACEUTICALS INC., priority 2011, published 2014)

Tests used:
Format in all cases: in vivo, rat
[1] = tested on: adenine-induced model of chronic renal failure in rats; assay: Serum phosphorus, calcium and calcium-phosphorus product in adenine-induced chronic renal failure; details: uremic rats
Experimental: (§1) The therapeutic efficacy Ac-c(C)rrarar-NH2, (SEQ ID NO:28) was assessed using an adenine-induced model of chronic renal failure in rats. The rats were obtained from Charles River Laboratories (Wilmington, Mass.). The rats were fed a low protein (2.5%), high phosphorus (0.92%) diet containing 0.75% adenine (Teklad Custom Diet). Animals were randomly assigned to receive daily subcutaneous doses of vehicle (10 mM succinic acid, 0.85% NaCl, 0.9% benzyl alcohol, pH 4.5) or Ac-c(C)rrarar-NH2 (SEQ ID NO:28) at 0.3 or 1 mg/kg (SC) for 4 weeks. A control group was fed the identical high phosphorus diet and tissues without adenine. Treatment was initiated at the start of diet. All experimental procedures with animals were performed according to IACUC guidelines. Statistical analysis was performed using one-way ANOVA with Bonferroni post test. All p-values are nominal.
Phosphorus and calcium were determined using a Cobas c-501 analyzer.

[2] = tested on: adenine-induced model of chronic renal failure in rats; assay: Vascular calcification (Alizarin Red, von Kossa) in adenine-induced chronic renal failure; details: uremic rats
Experimental: as §1
The effects of Ac-c(C)rrarar-NH2 (SEQ ID NO:28) treatment of vascular calcification was also determined using adenine-induced rat model of chronic renal failure. After treatment with Ac-c(C)rrarar-NH2 (SEQ ID NO:28) at doses of 0.3 or 1 mg/kg for 4 weeks, the uremic rats were sacrificed and aortic tissue was analyzed. Aortic tissue was processed and stained by Alizarin Red and von Kossa methods to visualize vascular mineralization. Using a scoring system from 0-5, identical sections of von Kossa-stained aorta from all animals were scored in a blinded fashion.

[3] = tested on: adenine-induced model of chronic renal failure in rats; assay: Creatinine suppression in adenine-induced chronic renal failure; details: 4 weeks
Experimental: as §1
Serum creatinine was measured using QuantiChrom™ kit (BioAssay Systems, Hayward, Calif.). Serum creatinine levels from vehicle-treated uremic animals were approximately 8-10 fold higher compared to the control group of non-uremic animals at the end of the 4 weeks. […] Uremic animals treated with Ac-c(C)rrarar-NH2 (SEQ ID NO:28) at a dose of 1 mg/kg Ac-c(C)rrarar-NH2 (SEQ ID NO:28) had approximately 50% lower serum creatinine levels compared with vehicle-treated controls.

[4] = tested on: adenine-induced model of chronic renal failure in rats; assay: PTH suppression in adenine-induced chronic renal failure; details: uremic rats, 0.3 or 1 mg/kg SC daily for 2 and 4 weeks
Experimental: as §1
Plasma PTH was measured using the Immunotopics BioActive Intact ELISA (Immutopics, San Clemente, Calif.). Prior to dosing with Ac-c(C)rrarar-NH2 (SEQ ID NO:28), all treatment groups had similar plasma PTH levels. The no-adenine-control animals maintained consistent plasma PTH levels over the 4 week study.

[5] = tested on: adenine-induced model of chronic renal failure in rats; assay: Parathyroid gland weight in adenine-induced chronic renal failure; details: 0.3 or 1 mg/kg SC daily for 4 weeks
Experimental: as §1
The effects of Ac-c(C)rrarar-NH2 (SEQ ID NO:28) treatment on parathyroid gland enlargement was also determined using the adenine-induced rat model of chronic renal failure. After treatment with Ac-c(C)rrarar-NH2 (SEQ ID NO:28) at doses of 0.3 or 1 mg/kg for 4 weeks, the uremic rats were sacrificed and the parathyroid glands were removed, trimmed and weighed.

[6] = 0.3 and 1 mg/kg SC daily for 4 weeks
[7] = 0.3 or 1 mg/kg SC daily for 4 weeks

Ac-c(C)rrarar-NH2
reduction in serum calcium-phosphorus product ([1]; 0.3 mg/kg SC daily for 4 weeks): ~20%
reduction in serum calcium-phosphorus product ([1]; 1 mg/kg SC daily for 4 weeks): ~40%
serum calcium compared to vehicle-treated rats [1, 6]: significant dose-dependent reduction
serum phosphorus levels [1, 6]: significant reduction
animals showing aortic mineralization ([2]; 0.3 mg/kg treatment group, 4 weeks): Only one animal
aortic mineralization, Alizarin Red and Von Kossa staining [2, 7]: little or no mineralization
von Kossa staining of aorta [2, 7]: no appreciable von Kossa staining
serum creatinine levels versus vehicle-treated uremic rats ([3]; 0.3 and 1 mg/kg SC daily): significantly lower
lower serum creatinine levels compared with vehicle-treated controls ([3]; uremic rats, 1 mg/kg SC daily): approximately 50%
plasma PTH versus vehicle-treated animals [4]: significantly lower
parathyroid gland weight compared to non-uremic animals [5]: not significantly different in weight
parathyroid gland weight compared to vehicle group ([5]; uremic rats): significantly reduced in weight
